# Experimental data taken from PMC11066876, “Late-Stage Saturation of Drug Molecules” (Journal of the American Chemical Society, 2024).
# Assays:
# [1] = Measurement of LogPo/w (n-octanol/water, RP-HPLC); type: physicochemical; conditions: n = 3; for logP at 24 h: measured n-octanol-water partition coefficient, 30 °C; for C(oil): n-octanol phase; for C(oil) / C(aqueous): n-octanol/water 1:1, 30 °C, 24 h; for C(aqueous): water phase
# [2] = Metabolic stability in human liver microsomes (Pharmaron); conditions: for CLint scaled at 1 µM / microsomal CLint at 1 µM / half-life at 1 µM: both, microsomes; for CLint scaled at 1 µM / microsomal CLint at 1 µM / half-life at 1 µM / Hepatic Extraction Ratio (ER) / Predicted Hepatic CLH: human; for Remaining Percentage 0.5 min / Remaining Percentage 5 min / Remaining Percentage 15 min / Remaining Percentage 30 min: human liver microsomes 0.5 mg/mL, +Cofactors (NADPH), 1 μM; for Predicted Hepatic CLH: QH 21 mL/min/kg, fub assumed 1
# [3] = High-throughput (direct-to-biology) human liver microsomal stability assay; conditions: for half-life at 105 µM / remaining at 0 h, 105 µM / remaining at 0.25 h, 105 µM / remaining at 0.5 h, 105 µM / remaining at 1 h, 105 µM: both, human, microsomes, pH 7.4; for %Change After 60 min: %remaining after LSS minus before LSS at 60 min
# SARS-CoV M^pro = conditions: Figure 1B; cited from earlier work
# [4] = set-up: method as in PMID 23701517; conditions: aqueous solubility, Figure 1B; cited from earlier work
# [5] = set-up: method as in PMID 23701517; conditions: Figure 1B; cited from earlier work
# [6] = Traditional t1/2, human liver microsomes, Figure 6B
# [7] = in vitro t1/2, human liver microsomes, Table S21
Compound,logP at 24 h [1],C(oil) [1],C(aqueous) [1],%Change After 60 min ([3]; human liver microsomes),"remaining at 0 h, 105 µM [3]","remaining at 0.25 h, 105 µM [3]","remaining at 0.5 h, 105 µM [3]","remaining at 1 h, 105 µM [3]",further results
C[C@@H](NCCCc1cccc(C(F)(F)F)c1)c1cccc2c1CCCC2 [compound 39],4.79,9.541 mg/mL,0.0001 mg/mL,–,–,–,–,–,"CLint scaled at 1 µM [2]: 68 mL/min/kg; microsomal CLint at 1 µM [2]: 66.2 µL/min/mg; half-life at 1 µM [2, 6]: 21 min; half-life at 1 µM [2, 7]: 21 min; Hepatic Extraction Ratio (ER) [2]: 0.76; Remaining Percentage 0.5 min [2]: 100.00%; Remaining Percentage 5 min [2]: 85.98%; Remaining Percentage 15 min [2]: 57.81%; Remaining Percentage 30 min [2]: 38.01%; Predicted Hepatic CLH [2]: 16.05 mL/min/kg; half-life at 105 µM [3]: 33.7 min"
COc1ccccc1N1CCN(CC(O)COc2cccc3c2CCCC3)CC1 (stereo not drawn) [compound 28],2.1,1.761 mg/mL,0.014 mg/mL,–,–,–,–,–,–
C[C@@H](NCCCc1cccc(C(F)(F)F)c1)c1cccc2ccccc12 [Cinacalcet],4.61,8.962 mg/mL,0.0002 mg/mL,-1.7%,100%,67.4%,49%,35.4%,"CLint scaled at 1 µM [2]: 67.4 mL/min/kg; microsomal CLint at 1 µM [2]: 65.6 µL/min/mg; half-life at 1 µM [2, 6]: 21.1 min; half-life at 1 µM [2, 7]: 21.1 min; Hepatic Extraction Ratio (ER) [2]: 0.76; Remaining Percentage 0.5 min [2]: 100.00%; Remaining Percentage 5 min [2]: 80.88%; Remaining Percentage 15 min [2]: 55.07%; Remaining Percentage 30 min [2]: 37.55%; Predicted Hepatic CLH [2]: 16.01 mL/min/kg; half-life at 105 µM [3]: 35.4 min"
CCCNC(C)C(=O)Nc1ccccc1C (stereo not drawn) [Prilocaine],1.02,1.306 mg/mL,0.124 mg/mL,-13.77%,100%,86%,75%,67.4%,–
CCN(CC)C(=O)c1cccc(C)c1 [Diethyltoluamide],–,–,–,0.82%,100%,89%,81.7%,75.5%,–
CC(C(=O)O)c1ccc(-c2ccccc2)c(F)c1 (stereo not drawn) [Flurbiprofen],1.14,1.858 mg/mL,0.135 mg/mL,7.13%,100%,50.1%,25.1%,9.28%,–
CCC1(c2ccccc2)C(=O)NCNC1=O [Primidone],–,–,–,2.16%,100%,71%,43.6%,27.8%,–
Nc1c2ccccc2nc2ccccc12 [Aminacrine],–,–,–,-12.39%,100%,83.7%,75.1%,66.2%,–
CCCNC(C)C(=O)NC1CCCCC1C (stereo not drawn) [compound 15],1.39,1.569 mg/mL,0.064 mg/mL,–,–,–,–,–,–
CN(Cc1ccc(C(C)(C)C)cc1)Cc1cccc2ccccc12 [Butenafine],–,–,–,-2.69%,100%,97.8%,95.6%,94.9%,–
CCOC(=O)[C@H](C)C[C@@H](Cc1ccc(-c2ccccc2)cc1)NC(=O)CCC(=O)O [Sacubitril],1.47,1.368 mg/mL,0.047 mg/mL,-1.91%,100%,60.2%,34%,22.6%,–
CC(C(=O)O)c1ccc(N2C[C@H]3CCCC[C@H]3C2=O)cc1 (stereo partly drawn) [compound 37],0.813,0.897 mg/mL,0.138 mg/mL,–,–,–,–,–,–
CCOC(=O)[C@H](C)C[C@@H](Cc1ccc(C2CCCCC2)cc1)NC(=O)CCC(=O)O [compound 70],1.39,0.737 mg/mL,0.030 mg/mL,–,–,–,–,–,–
CC(Cc1cccc(C(F)(F)F)c1)NCCOC(=O)c1ccccc1 (stereo not drawn) [Benfluorex],–,–,–,–,100%,–,–,–,–
"O=C(C1CCCCC1)N1CC(=O)N2CCc3ccccc3C2C1 (stereo not drawn) [Praziquantel, praziquantel]",–,–,–,-15.26%,–,–,31.8%,15.3%,–
CC(C(=O)O)c1ccc(N2Cc3ccccc3C2=O)cc1 (stereo not drawn) [Indoprofen],1.02,0.943 mg/mL,0.091 mg/mL,-14.04%,100%,97.6%,99%,102%,–
CCN(Cc1ccncc1)C(=O)C(CO)c1ccccc1 (stereo not drawn) [Tropicamide],–,–,–,-2.61%,100%,95.2%,91.9%,88.1%,–
O=C(/C=C/c1ccccc1)N[C@@H](CC1CCCCC1)C(=O)N[C@@H](C[C@@H]1CCNC1=O)C(=O)C(=O)NCc1ccccc1 [compound 2],–,–,–,–,–,–,–,–,IC50 (SARS-CoV M^pro): 710 nM
CC(C(=O)O)c1ccc(C2CCCCC2)c(F)c1 (stereo not drawn) [compound 27],1.54,2.453 mg/mL,0.071 mg/mL,–,–,–,–,–,"microsomal stability upon saturation ([3]; human liver microsomes, saturated congener versus parent drug, in words): increase in stability"
CC1(C)OC(=O)N(c2ccc(C(=O)Nc3cccc4cccnc34)cc2)[C@H]1c1ccccc1 [compound 3],–,–,–,–,–,–,–,–,Solubility [4]: 5 µg/mL; Plasma stability (t1/2) [5]: 312 min
COC(=O)N[C@H](C(=O)N[C@@H](Cc1ccccc1)[C@@H](O)CN(Cc1ccc(-c2ccccn2)cc1)NC(=O)[C@@H](NC(=O)OC)C(C)(C)C)C(C)(C)C [Atazanavir],–,–,–,-5.37%,100%,84.7%,72.9%,65.3%,–
O=C(/C=C/c1ccccc1)N[C@@H](Cc1ccccc1)C(=O)N[C@@H](C[C@@H]1CCNC1=O)C(=O)C(=O)NCc1ccccc1 [compound 1],–,–,–,–,–,–,–,–,IC50 (SARS-CoV M^pro): 1950 nM
CC(C)NCC(O)COC1CCCC2CCCCC21 (stereo not drawn) [compound 23],2.62,2.697 mg/mL,0.007 mg/mL,–,–,–,–,–,–
COc1ccccc1N1CCN(CC(O)COc2cccc3ccccc23)CC1 (stereo not drawn) [Naftopidil],2.04,1.697 mg/mL,0.016 mg/mL,-25.63%,100%,72.2%,58.9%,47%,–
"COc1ccc2cc(CCC(C)=O)ccc2c1 [Nabumetone, nabumetone]",–,–,–,5.23%,100%,58%,40.7%,21.7%,–
CC(C)NCC(O)COc1cccc2ccccc12 (stereo not drawn) [Propranolol],–,2.871 mg/mL,0.015 mg/mL,–,–,–,–,–,–
CC1(C)OC(=O)N([C@H]2CC[C@H](C(=O)Nc3cccc4cccnc34)CC2)[C@H]1c1ccccc1 [compound 4],–,–,–,–,–,–,–,–,Plasma stability (t1/2) [5]: > 500 min
